Earlier results in patent US20240315993A1, “ANTIPARASITIC COMPOUNDS” (Intervet Inc., priority 2021, published 2024).

How the values were obtained:
[1] = tested on: Beet Armyworm (Spodoptera exigua); conditions: Beet Armyworm second instar larvae, 128-well diet tray, 50 μg/cm^2, five to seven days, average of eight wells; cited from earlier work
[2] = tested on: Yellow Fever Mosquito (Aedes aegypti); conditions: Aedes aegypti larvae about 1 day old, 96-well plate, scored after 3 days; cited from earlier work
[3] = tested on: Cabbage Looper (Trichoplusia ni); conditions: Cabbage Looper second instar larvae, 128-well diet tray, 50 μg/cm^2, five to seven days, average of eight wells; cited from earlier work

SMILES | Test A: Bioassay on BAW, percent mortality rating [1] | Test C: Bioassay on Yellow Fever Mosquito, mortality rating [2] | Test B: Bioassay on CL, percent mortality rating [3]
O=C(Nc1ccc2nc(Cl)[nH]c2c1)c1cc(NC(=O)C2C(c3cc(Cl)cc(Cl)c3)C2(Cl)Cl)ccc1Cl (stereo not drawn) [c15] | A (50-100) | B (More than 0 - Less than 80) | A (50-100)
COC(=O)Nc1ccc(NC(=O)c2cc(NC(=O)[C@H]3[C@H](c4cc(Cl)cc(Cl)c4)C3(Cl)Cl)ccc2Cl)cc1 [c16] | A (50-100) | B (More than 0 - Less than 80) | A (50-100)
O=C(Nc1cc(C(F)(F)F)[nH]n1)c1cc(NC(=O)[C@H]2[C@H](c3cc(Cl)cc(Cl)c3)C2(Cl)Cl)ccc1Cl [c17] | A (50-100) | D (No activity noticed in this bioassay) | A (50-100)
O=C(Nc1ccc(-n2cccn2)cc1)c1cc(NC(=O)C2C(c3cc(Cl)cc(Cl)c3)C2(Cl)Cl)ccc1Cl (stereo not drawn) [c18] | A (50-100) | A (80-100) | A (50-100)
O=C(Nc1nc2ccccc2s1)c1cc(NC(=O)C2C(c3cc(Cl)cc(Cl)c3)C2(Cl)Cl)ccc1Cl (stereo not drawn) [c19] | A (50-100) | B (More than 0 - Less than 80) | A (50-100)
COc1c(Cl)cc(C2C(C(=O)Nc3ccc(Cl)c(C(=O)Nc4ccc(NC(C)=O)cc4)c3)C2(Cl)Cl)cc1Cl (stereo not drawn) [c20] | A (50-100) | D (No activity noticed in this bioassay) | A (50-100)
CNc1ccc(NC(=O)c2cc(NC(=O)C3C(c4cc(Cl)c(OC)c(Cl)c4)C3(Cl)Cl)ccc2Cl)cc1 (stereo not drawn) [c21] | A (50-100) | D (No activity noticed in this bioassay) | A (50-100)
O=C(Nc1nnn[nH]1)c1cc(NC(=O)[C@H]2[C@H](c3cc(Cl)cc(Cl)c3)C2(Cl)Cl)ccc1Cl [c22] | A (50-100) | B (More than 0 - Less than 80) | A (50-100)
O=C(Nc1ccc(-c2ncco2)cc1)c1cc(NC(=O)C2C(c3cc(Cl)cc(Cl)c3)C2(Cl)Cl)ccc1Cl (stereo not drawn) [c23] | A (50-100) | D (No activity noticed in this bioassay) | A (50-100)
Cc1ccc(-c2csc(NC(=O)c3cc(NC(=O)[C@H]4[C@H](c5cc(Cl)cc(Cl)c5)C4(Cl)Cl)ccc3Cl)n2)cc1 [c24] | A (50-100) | D (No activity noticed in this bioassay) | A (50-100)
O=C(Nc1c[nH]c(=O)[nH]c1=O)c1cc(NC(=O)[C@H]2[C@H](c3cc(Cl)cc(Cl)c3)C2(Cl)Cl)ccc1Cl [c25] | A (50-100) | B (More than 0 - Less than 80) | A (50-100)
O=C(Nc1nc2ccccc2o1)c1cc(NC(=O)C2C(c3cc(Cl)cc(Cl)c3)C2(Cl)Cl)ccc1Cl (stereo not drawn) [c26] | A (50-100) | A (80-100) | A (50-100)
O=C(Nc1ccc2ncoc2c1)c1cc(NC(=O)C2C(c3cc(Cl)cc(Cl)c3)C2(Cl)Cl)ccc1Cl (stereo not drawn) [c27] | A (50-100) | A (80-100) | A (50-100)
O=C(Nc1ccc2sccc2c1)c1cc(NC(=O)C2C(c3cc(Cl)cc(Cl)c3)C2(Cl)Cl)ccc1Cl (stereo not drawn) [c28] | A (50-100) | A (80-100) | A (50-100)
Nc1cccc(NC(=O)c2cc(NC(=O)C3C(c4cc(Cl)cc(Cl)c4)C3(Cl)Cl)ccc2Cl)c1 (stereo not drawn) [c29] | A (50-100) | A (80-100) | A (50-100)
CNc1cccc(NC(=O)c2cc(NC(=O)C3C(c4cc(Cl)cc(Cl)c4)C3(Cl)Cl)ccc2Cl)c1 (stereo not drawn) [c30] | A (50-100) | A (80-100) | A (50-100)
Cc1ccc(NC(=O)c2cc(NC(=O)C3C(c4cc(Cl)cc(Cl)c4)C3(Cl)Cl)ccc2Cl)cc1N (stereo not drawn) [c31] | A (50-100) | B (More than 0 - Less than 80) | A (50-100)
Cc1cc2cc(NC(=O)c3cc(NC(=O)C4C(c5cc(Cl)cc(Cl)c5)C4(Cl)Cl)ccc3Cl)ccc2[nH]1 (stereo not drawn) [c32] | A (50-100) | A (80-100) | A (50-100)
Cc1nc2cc(NC(=O)c3cc(NC(=O)C4C(c5cc(Cl)cc(Cl)c5)C4(Cl)Cl)ccc3Cl)ccc2s1 (stereo not drawn) [c33] | A (50-100) | A (80-100) | A (50-100)
O=C(Nc1ccc2[nH]cnc2c1)c1cc(NC(=O)C2C(c3cc(Cl)cc(Cl)c3)C2(Cl)Cl)ccc1Cl (stereo not drawn) [c34] | A (50-100) | B (More than 0 - Less than 80) | A (50-100)
CNc1ccc(NC(=O)c2cc(NC(=O)C3C(c4cc(Cl)cc(Cl)c4)C3(Cl)Cl)ccc2Cl)c(C)c1 (stereo not drawn) [c35] | A (50-100) | A (80-100) | A (50-100)
Cn1ccc2cc(NC(=O)c3cc(NC(=O)C4C(c5cc(Cl)cc(Cl)c5)C4(Cl)Cl)ccc3Cl)ccc21 (stereo not drawn) [c36] | A (50-100) | A (80-100) | A (50-100)
O=C(Nc1ccc2c(ccn2Cc2ccccc2)c1)c1cc(NC(=O)C2C(c3cc(Cl)cc(Cl)c3)C2(Cl)Cl)ccc1Cl (stereo not drawn) [c37] | A (50-100) | D (No activity noticed in this bioassay) | A (50-100)
CN1C(=O)Cc2cc(NC(=O)c3cc(NC(=O)C4C(c5cc(Cl)cc(Cl)c5)C4(Cl)Cl)ccc3Cl)ccc21 (stereo not drawn) [c38] | A (50-100) | A (80-100) | A (50-100)
Cn1nc(NC(=O)c2cc(NC(=O)C3C(c4cc(Cl)cc(Cl)c4)C3(Cl)Cl)ccc2Cl)c2cc(C(F)(F)F)ccc21 (stereo not drawn) [c39] | A (50-100) | A (80-100) | A (50-100)
O=C(Nc1ccc(-c2nccs2)cc1)c1cc(NC(=O)C2C(c3cc(Cl)cc(Cl)c3)C2(Cl)Cl)ccc1Cl (stereo not drawn) [c41] | A (50-100) | A (80-100) | A (50-100)
Cc1cc(N(C)C(=O)OC(C)(C)C)ccc1NC(=O)c1cc(NC(=O)C2C(c3ccc(F)c(Cl)c3)C2(Cl)Cl)ccc1Cl (stereo not drawn) [c42] | A (50-100) | D (No activity noticed in this bioassay) | D (No activity noticed in this bioassay)
Cc1cc(N(C)C(=O)OC(C)(C)C)ccc1N(C)C(=O)c1cc(NC(=O)C2C(c3cc(Cl)cc(Cl)c3)C2(Cl)Cl)ccc1Cl (stereo not drawn) [c43] | A (50-100) | D (No activity noticed in this bioassay) | A (50-100)
Cc1cc(N(C)C(=O)OC(C)(C)C)ccc1N(C)C(=O)c1cc(NC(=O)C2C(c3cc(Cl)c(Cl)c(Cl)c3)C2(Cl)Cl)ccc1Cl (stereo not drawn) [c44] | A (50-100) | D (No activity noticed in this bioassay) | D (No activity noticed in this bioassay)
O=C(Nc1nc(-c2cccs2)cs1)c1cc(NC(=O)[C@H]2[C@H](c3cc(Cl)cc(Cl)c3)C2(Cl)Cl)ccc1Cl [c45] | A (50-100) | A (80-100) | A (50-100)
